Laboratory results: PubChem BioAssay (NCI)
“And” between values parts separate entries of the source, which are not always exact repeats. Equal entries are not always repeated.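 All cell lines were grown in 96-well plates and treated with compound for 48 hours. The concentration for 50% growth inhibition is given as GI50. TGI: concentration producing complete growth inhibition.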

Columns and labels:
Assay in all cases: NCI tumour cell line growth inhibition, 48 h
[1] = system: DLD-1 colon
[2] = system: DMS 114 small cell lung
[3] = system: HCT-15 colon
[4] = system: HL-60(TB) leukemia
[5] = system: HOP-18 NSCLC
[6] = system: HOP-92 NSCLC
[7] = system: K-562 leukemia
[8] = system: M19-MEL melanoma
[9] = system: SK-MEL-28 melanoma
[10] = system: SNB-78 CNS
[11] = system: XF 498 CNS
[12] = system: HS 578T breast
[13] = system: MCF7 breast

| SMILES | TGI [1] [µM] | TGI [2] [µM] | TGI [3] | TGI [4] | TGI [5] [µM] | TGI [6] [µM] | TGI [7] | TGI [8] [µM] | TGI [9] | TGI [10] [µM] | TGI [11] [µM] | TGI [12] | TGI [13] | GI50 [3] | GI50 [4] | GI50 [6] [nM] | GI50 [12] | GI50 [7] | GI50 [13] | GI50 [9] |
| --- | --- | --- | --- | --- | --- | --- | --- | --- | --- | --- | --- | --- | --- | --- | --- | --- | --- | --- | --- | --- |
| CC(=O)c1ccc(NC(=O)C(=O)Nn2c(=S)[nH]c3ccccc3c2=O)cc1 | > 100 | > 100 | > 100 µM | > 100 µM | > 100 | > 100 | > 100 µM | > 100 | > 100 µM | > 100 | > 100 | – | – | – | – | – | – | – | – | – |
| CC1C[C@@H]2C(=O)NC(=O)[C@@H]2c2c1c1ccccc1n2C (stereo not given in full) | > 100 | > 100 | > 100 µM | > 100 µM | – | > 100 | > 100 µM | > 100 | > 100 µM | > 100 | > 100 | – | – | – | – | – | – | – | – | – |
| O=C(Nc1nc2ncn(CCNCc3ccccc3)c2c(=O)[nH]1)c1ccccc1 | > 100 | > 100 | > 100 µM | > 100 µM | > 100 | > 100 | > 100 µM | > 100 | > 100 µM | > 100 | – | – | – | – | – | – | – | – | – | – |
| O=[N+]([O-])c1cccc(C2ON2C2CCCCC2)c1 (stereo not given) | 29.9 | 42.9 | 30.7 µM | 47.9 µM | > 100 | 89.7 | 60.3 µM | 39.9 | > 100 µM | > 100 | – | – | – | – | – | – | – | – | – | – |
| Cc1cc(C)nc(NS(=O)(=O)c2ccc(Nc3c4ccc(Cl)cc4nc4c(C(=O)Nc5ccc(S(N)(=O)=O)cc5)cccc34)cc2)n1 | 32 | 65 | 36.2 µM | – | – | – | > 100 µM | > 100 | > 100 µM | > 100 | 45.6 | – | – | – | – | – | – | – | – | – |
| COC(=O)c1c(N)n[nH]c1N | > 100 | – | – | > 100 µM | – | > 100 | > 100 µM | > 100 | > 100 µM | > 100 | > 100 | – | – | – | – | – | – | – | – | – |
| O=C1c2ccccc2C(=O)c2c1ccc(C1C(=O)c3ccccc3C1=O)c2-c1c(C2C(=O)c3ccccc3C2=O)ccc2c1C(=O)c1ccccc1C2=O | – | – | > 100 µM | > 100 µM | – | > 100 | > 100 µM | – | > 100 µM | – | – | > 100 µM | > 100 µM | – | – | – | – | – | – | – |
| CCC1CN2CCc3c([nH]c4ccccc34)C2C[C@@H]1CC(=O)N(C)C (stereo not given in full) | > 100 | > 100 | > 100 µM | > 100 µM | > 100 | > 100 | > 100 µM | > 100 | > 100 µM | > 100 | > 100 | – | – | – | – | – | – | – | – | – |
| NC(=O)c1ccc2nc(-c3ccc(Oc4ccc(Cl)cc4)cc3)[nH]c2c1 | – | – | 75 µM and 31 µM | 58.7 µM and 41.2 µM | – | > 75 | 75 µM and 88.3 µM | – | 75 µM and 29 µM | – | – | 75 µM and 42.6 µM | 75 µM and 23.9 µM | 23600 nM and 12600 nM | 12400 nM and 17300 nM | > 75000 | 24200 nM and 16500 nM | 37800 nM and 10300 nM | 33100 nM and 6400 nM | 40.4 µM and 15.6 µM |
| CC1(C)[C@@H](O[C@@H]2OC[C@@H](O[C@@H]3O[C@H](CO)[C@@H](O)[C@H](O)[C@H]3O[C@@H]3OC[C@@H](O)[C@H](O)[C@H]3O)[C@H](O)[C@H]2O[C@@H]2O[C@H](CO)[C@@H](O)[C@H](O)[C@H]2O)CC[C@]2(C)[C@H]3CC[C@]45OC[C@@]6(CC[C@](C)(C=O)C[C@H]64)[C@H](O)C[C@@]5(C)[C@]3(C)CC[C@@H]12 | – | – | 4.37 µM | 2.21 µM | – | 1.54 | 5.51 µM | – | 1.77 µM | – | – | 2.4 µM | 2.43 µM | 1620 nM | 1040 nM | 704 | 995 nM | 1810 nM | 972 nM | 0.903 µM |
| CC[C@@H](C(=O)[C@@H](C)[C@@H](O)[C@H](C)[C@@H]1O[C@@H]([C@@H](CC)C(=O)N(CC)CC)CC[C@@H]1C)C1O[C@]2(C=CC(=O)[C@]3(CC[C@@](C)([C@H]4CC[C@](O)(CC)[C@H](C)O4)O3)O2)[C@H](C)C[C@@H]1C (stereo not given in full) | – | – | 4.51 µM | 4.95 µM | – | 4.6 | > 100 µM | – | 21.3 µM | – | – | 16.1 µM | 8.11 µM | 2020 nM | 2160 nM | 1350 | 2680 nM | 2890 nM | 2410 nM | 4.45 µM |
| Cc1cc(Cl)ccc1NC(=O)c1cc2ccccc2cc1O | – | – | > 100 µM | 3.47 µM | – | 0.545 | > 100 µM | – | > 100 µM | – | – | > 100 µM | > 100 µM | 641 nM | 435 nM | 146 | 1310 nM | 419 nM | 1570 nM | 0.767 µM |
| CCOC(=O)C1=C(C)N(c2ccc(C)cc2)C2=C(C(=O)N(c3ccccc3)C2c2ccccc2)C1c1ccccc1 (stereo not given) | > 25 | > 25 | > 25 µM | > 25 µM | – | – | > 25 µM | > 25 | > 25 µM | – | > 25 | – | – | – | – | – | – | – | – | – |
| O=C(Cn1ccnc1[N+](=O)[O-])c1ccc(F)cc1 | – | > 100 | > 100 µM | > 100 µM | > 100 | > 100 | > 100 µM | > 100 | > 100 µM | – | > 100 | – | – | – | – | – | – | – | – | – |
| COc1cc2c(cc1Nc1nc(Nc3ccsc3C(N)=O)c3cc[nH]c3n1)N(C(=O)CN(C)C)CCC2(C)C | – | – | 5.62 µM | 2.04 µM | – | 0.833 | 6.47 µM | – | 6.41 µM | – | – | 5.13 µM | 2.97 µM | 1840 nM | < 2.5 nM | < 2.5 | 1110 nM | 1750 nM | < 2.5 nM | 3.06 µM |
| CCCCCCCCCCCCCP(=O)(O)OCC | > 100 | > 100 | > 100 µM | > 100 µM | > 100 | > 100 | – | > 100 | > 100 µM | > 100 | – | – | – | – | – | – | – | – | – | – |
| C=C1CCC2C(C)(C)CCC[C@]2(C)[C@H]1CO (stereo not given in full) | – | – | > 100 µM | > 100 µM | – | > 100 | > 100 µM | – | > 100 µM | – | – | > 100 µM | > 100 µM | 56900 nM | 15800 nM | 74900 | > 100000 nM | 73800 nM | 49100 nM | > 100 µM |
| Fc1ccccc1C1CC(c2ccc3ccccc3c2)=Nc2ccccc2S1 (stereo not given) | – | – | – | > 100 µM | > 100 | – | – | > 100 | > 100 µM | > 100 | > 100 | – | – | – | – | – | – | – | – | – |
| CC1(C)Cc2cc(C(=O)O)c3c(c2C1=O)COCC3 | > 100 | > 100 | > 100 µM | > 100 µM | > 100 | – | > 100 µM | > 100 | – | > 100 | > 100 | – | – | – | – | – | – | – | – | – |
